In ChEMBL document CHEMBL4184300, “Design and characterization of bivalent compounds as potential neuroprotectants for Alzheimer's disease: Impact of the spacer on biological activity” (Bioorg Med Chem Lett, 2018):
The source made the active and inactive calls. The calls are words filed in the database; no cut-off is given here.

Experiments:
[1] = Metal chelating activity assessed as Cu2+-compound complex formation at 50 uM after 10 mins by UV-Vis spectroscopic method
[2] = Metal chelating activity assessed as Zn2+-compound complex formation at 50 uM after 10 mins by UV-Vis spectroscopic method
[3] = Metal chelating activity assessed as Fe2+-compound complex formation at 50 uM after 10 mins by UV-Vis spectroscopic method
[4] = Neuroprotective activity against tetracycline removal-induced cytotoxicity in human MC65 cells assessed as increase in cell viability after 72 hrs by MTT assay; assay type: functional, cell-based; conditions: MC65, 72 h
[5] = organism: Homo sapiens; test: Neuroprotective activity against tetracycline removal-induced cytotoxicity in human MC65 cells assessed as reduction in oxidative stress at 0.3 uM after 48 hrs by DCFH-DA dye based fluorescence assay; assay type: functional, cell-based
[6] = system: N2a; test: Neuroprotective activity in mouse N2A cells assessed as induction of neurite outgrowth at 0.3 uM after 48 hrs by fluorescence microscopic analysis; assay type: functional, cell-based
[7] = organism: Homo sapiens; test: Neuroprotective activity against tetracycline removal-induced cytotoxicity in human MC65 cells assessed as reduction in oxidative stress at 32 uM after 48 hrs by DCFH-DA dye based fluorescence assay; assay type: functional, cell-based
[8] = organism: Homo sapiens; test: Neuroprotective activity against tetracycline removal-induced cytotoxicity in human MC65 cells assessed as reduction in oxidative stress at 8 mM after 48 hrs by DCFH-DA dye based fluorescence assay; assay type: functional, cell-based

Activity [1] | Activity [2] | Activity [3] | Compound | EC50 [4] [nM] | Activity [5] | Activity [6] | Activity [7] | Activity [8]
inactive | inactive | inactive | COc1cc(/C=C/C(=O)C(Cc2cn(CCCCC(=O)NCCCN3CCN(CCCNC(=O)CCC(=O)NCCCN4CCN(CCCNCCN[C@H]5CC[C@@]6(C)C(=CC[C@H]7[C@@H]8CC[C@H]([C@H](C)CCCC(C)C)[C@@]8(C)CC[C@@H]76)C5)CC4)CC3)nn2)C(=O)/C=C/c2ccc(O)c(OC)c2)ccc1O | 94 | Active |  |  | 
inactive | inactive | inactive | COc1cc(/C=C/C(=O)C(Cc2cn(CCNC(=O)CCC(=O)NCCCN3CCN(CCCNCCN[C@H]4CC[C@@]5(C)C(=CC[C@H]6[C@@H]7CC[C@H]([C@H](C)CCCC(C)C)[C@@]7(C)CC[C@@H]65)C4)CC3)nn2)C(=O)/C=C/c2ccc(O)c(OC)c2)ccc1O | 34.2 | Active |  |  | 
inactive | inactive | inactive | COc1cc(/C=C/C(=O)C(Cc2cn(CCCCC(=O)NCCCN3CCN(CCCNC(=O)CCN4CCN(CCCN[C@H]5CC[C@@]6(C)C(=CC[C@H]7[C@@H]8CC[C@H]([C@H](C)CCCC(C)C)[C@@]8(C)CC[C@@H]76)C5)CC4)CC3)nn2)C(=O)/C=C/c2ccc(O)c(OC)c2)ccc1O | 64.3 | Active |  |  | 
inactive | inactive | inactive | COc1cc(/C=C/C(=O)C(Cc2cn(CCC(=O)NCCCN3CCN(CCCNC(=O)CCC(=O)NCCCN4CCN(CCCNCCN[C@H]5CC[C@@]6(C)C(=CC[C@H]7[C@@H]8CC[C@H]([C@H](C)CCCC(C)C)[C@@]8(C)CC[C@@H]76)C5)CC4)CC3)nn2)C(=O)/C=C/c2ccc(O)c(OC)c2)ccc1O | 33.9 | Active |  |  | 
inactive | inactive | inactive | COc1cc(/C=C/C(=O)C(Cc2cn(CCC(=O)NCCCN3CCN(CCCNC(=O)CCN4CCN(CCCN[C@H]5CC[C@@]6(C)C(=CC[C@H]7[C@@H]8CC[C@H]([C@H](C)CCCC(C)C)[C@@]8(C)CC[C@@H]76)C5)CC4)CC3)nn2)C(=O)/C=C/c2ccc(O)c(OC)c2)ccc1O | 33.7 | Active |  |  | 
inactive | inactive | inactive | COc1cc(/C=C/C(=O)C(Cc2cn(CCCCC(=O)NCCCN3CCN(CCCNCCN[C@H]4CC[C@@]5(C)C(=CC[C@H]6[C@@H]7CC[C@H]([C@H](C)CCCC(C)C)[C@@]7(C)CC[C@@H]65)C4)CC3)nn2)C(=O)/C=C/c2ccc(O)c(OC)c2)ccc1O | 21.5 | Active |  |  | 
inactive | inactive | inactive | COc1cc(/C=C/C(=O)C(Cc2cn(CCCCNC(=O)CCC(=O)NCCCN3CCN(CCCNCCN[C@H]4CC[C@@]5(C)C(=CC[C@H]6[C@@H]7CC[C@H]([C@H](C)CCCC(C)C)[C@@]7(C)CC[C@@H]65)C4)CC3)nn2)C(=O)/C=C/c2ccc(O)c(OC)c2)ccc1O | 40.6 | Active |  |  | 
inactive | inactive | inactive | COc1cc(/C=C/C(=O)C(Cc2cn(CCC(=O)NCCCN3CCN(CCCNCCN[C@H]4CC[C@@]5(C)C(=CC[C@H]6[C@@H]7CC[C@H]([C@H](C)CCCC(C)C)[C@@]7(C)CC[C@@H]65)C4)CC3)nn2)C(=O)/C=C/c2ccc(O)c(OC)c2)ccc1O | 23.9 | Active | inactive |  | 
inactive | inactive | inactive | COc1cc(/C=C/C(=O)C(Cc2cn(CCCCNC(=O)CCC(=O)NCCCN3CCN(CCCNC(=O)CCN4CCN(CCCN[C@H]5CC[C@@]6(C)C(=CC[C@H]7[C@@H]8CC[C@H]([C@H](C)CCCC(C)C)[C@@]8(C)CC[C@@H]76)C5)CC4)CC3)nn2)C(=O)/C=C/c2ccc(O)c(OC)c2)ccc1O | 30.9 | Active |  |  | 
 |  |  | Cc1c(C)c2c(c(C)c1O)CCC(C)(C(=O)O)O2 (stereo not drawn) |  |  |  | Active | 
inactive | inactive | inactive | COc1cc(/C=C/C(=O)C(Cc2cn(CCNC(=O)CCC(=O)NCCCN3CCN(CCCNC(=O)CCN4CCN(CCCN[C@H]5CC[C@@]6(C)C(=CC[C@H]7[C@@H]8CC[C@H]([C@H](C)CCCC(C)C)[C@@]8(C)CC[C@@H]76)C5)CC4)CC3)nn2)C(=O)/C=C/c2ccc(O)c(OC)c2)ccc1O | 31.6 | Active |  |  | 
 |  |  | CC(=O)N[C@@H](CS)C(=O)O |  |  |  |  | inactive
